In one assay the test system is Meth A Sarcoma Cells. The experiment in a line: Rejection of Meth A tumor challenge in immunized mice. The settings on record: BALB/c mice immunized with 100 μg CDR-based peptide. The assay is classed as in vivo. The method, then: (a) The Meth A tumor is a transplantable 3-methylcholantrene-induced sarcoma of BALB/c origin (Old et al., 1962) that has three mutations in the p53 coding sequence (Arai et al., 1986). The cells were grown in DMEM containing 10% heat-inactivated fetal calf serum (FCS), and passaged through BALB/c mice to select for tumorogenicity. For challenge, mice were injected intradermally with 10^6 Meth A cells. […] Rejection was scored as the disappearance of the tumor mass within 20 days after tumor challenge.
To learn whether immunization with anti-p53 mAb might influence in vivo the development of a tumor bearing a mutated form of the p53 molecule, groups of BALB/c female mice were immunized as above with either mAb 240, mAb 246, mAb 421 or mAb 9E 10. The mice were challenged intradermally with 10^6 Meth A tumor cells 10 days after the boost. Non-immunized mice were also tested.
Immunization of BALB/c mice with peptides V–IX of Example 3 was carried out as described for the whole mAbs in Materials and Methods, section iv, using 100 μg of peptide, and then assayed for the development of anti-p53 antibodies.

Another assay relates to p53. Nature of the assay: Induction of anti-p53 antibodies in immunized mice, ELISA on wild type p53. The assay is classed as in vivo, mouse. The settings on record: BALB/c mice immunized with 100 μg of peptide. The method, then:
E Coli BL21 (DE3) cells transformed with the T7 expression vector containing regularly spliced mouse p53 cDNA were used to express wild type or mutant p53 as previously described (Shohat-Foord et at., 1991; Wolkowicz et al., 1995). For protein induction, IPTG at a final concentration of 0.4 mM was added when the cells had reached an O.D.600 of 0.8–1.0. Three hours after induction, the cells were harvested from a 200 ml culture by centrifugation, and the pellet was resuspended in 5 ml of ice-cold lysis buffer (20 mM Tris-HCl, pH: 7.4; 500 mM NaCl; 10% glycerol; 1 mM EDTA; 1 mM PMSF; 5 μg/ml leupeptine; 10 μg/ml aprotinin and 0.1% NP40). The lysate was subjected to sonication for 10 cycles of 15 s of sonication followed by 15 s of gentle swirling. The solicited sample was subjected to two cycles of freeze-thaw and then centrifuged for 10 min at 10.000× g. […]
[…] Antibodies were measured after booster immurdzation.
For the ELISA assay flat bottom maxi-sorb plates (Nunc, Roskilde, Denmark) were coated with 50 μl per well of mutant or wild type p53 at a concentration of 10 μg/ml. […] After washing, the plates were incubated with the substrate, p-nitrophenil phosphate disodium (Sigma) and read using an ELISA reader at 405 nm. Sera manifesting an O.D. reading, after substraction of the background, of 0.3 or greater, were scored as positive.
A general note: ELISA stands for enzyme-linked immunosorbent assay.

Ends that are not written are not given here.

In the case of “AVYYCARSGSRFDYWGEGTT [Peptide VIII, includes CDR3 of the heavy chain of mAb 248]”, the “Incidence of Rejected Tumors” value in the assay on Meth A Sarcoma Cells is 4/5. As to “GDINPNNGYTIYNQKVKGKA [Peptide VII, includes CDR2 of the heavy chain of mAb 246]”, the “Incidence of Rejected Tumors” value in the assay with Meth A Sarcoma Cells is 5/5. Turning to “GVYYCWQGTHSPLTFGAGTK [Peptide VI, includes CDR3 of the light chain of mAb 421]”, the “incidence of mice developing IgG anti-p53 antibodies (ELISA assay)” value in the assay with p53 is given as 7/10. For the same sequence, the “Incidence of Rejected Tumors” value with Meth A Sarcoma Cells is reported as 5/5.

“VYFCQQSNSWPVHARGGGTK [Peptide IX, includes CDR3 of the light chain of mAb 248]”: the “Incidence of Rejected Tumors” value in the assay on Meth A Sarcoma Cells was 4/5. In the case of “YYCQHIRELTRSEGGPS [Peptide V, includes CDR3 of the light chain of mAb 240]”, the “incidence of mice developing IgG anti-p53 antibodies (ELISA assay)” value in the assay with p53 is listed as 8/10. Further, the “Incidence of Rejected Tumors” value in the assay with Meth A Sarcoma Cells is 4/5.

These data come from patent US7118744B2, “Immunogenic compositions for induction of anti-tumor immunity” (Yeda Research and Development Co., Ltd., priority 1997, dated 2006).
